One data set deals with T1, citrate lyase (Homo sapiens, UniProt P53396).
T1 sequence (P53396 1-1101): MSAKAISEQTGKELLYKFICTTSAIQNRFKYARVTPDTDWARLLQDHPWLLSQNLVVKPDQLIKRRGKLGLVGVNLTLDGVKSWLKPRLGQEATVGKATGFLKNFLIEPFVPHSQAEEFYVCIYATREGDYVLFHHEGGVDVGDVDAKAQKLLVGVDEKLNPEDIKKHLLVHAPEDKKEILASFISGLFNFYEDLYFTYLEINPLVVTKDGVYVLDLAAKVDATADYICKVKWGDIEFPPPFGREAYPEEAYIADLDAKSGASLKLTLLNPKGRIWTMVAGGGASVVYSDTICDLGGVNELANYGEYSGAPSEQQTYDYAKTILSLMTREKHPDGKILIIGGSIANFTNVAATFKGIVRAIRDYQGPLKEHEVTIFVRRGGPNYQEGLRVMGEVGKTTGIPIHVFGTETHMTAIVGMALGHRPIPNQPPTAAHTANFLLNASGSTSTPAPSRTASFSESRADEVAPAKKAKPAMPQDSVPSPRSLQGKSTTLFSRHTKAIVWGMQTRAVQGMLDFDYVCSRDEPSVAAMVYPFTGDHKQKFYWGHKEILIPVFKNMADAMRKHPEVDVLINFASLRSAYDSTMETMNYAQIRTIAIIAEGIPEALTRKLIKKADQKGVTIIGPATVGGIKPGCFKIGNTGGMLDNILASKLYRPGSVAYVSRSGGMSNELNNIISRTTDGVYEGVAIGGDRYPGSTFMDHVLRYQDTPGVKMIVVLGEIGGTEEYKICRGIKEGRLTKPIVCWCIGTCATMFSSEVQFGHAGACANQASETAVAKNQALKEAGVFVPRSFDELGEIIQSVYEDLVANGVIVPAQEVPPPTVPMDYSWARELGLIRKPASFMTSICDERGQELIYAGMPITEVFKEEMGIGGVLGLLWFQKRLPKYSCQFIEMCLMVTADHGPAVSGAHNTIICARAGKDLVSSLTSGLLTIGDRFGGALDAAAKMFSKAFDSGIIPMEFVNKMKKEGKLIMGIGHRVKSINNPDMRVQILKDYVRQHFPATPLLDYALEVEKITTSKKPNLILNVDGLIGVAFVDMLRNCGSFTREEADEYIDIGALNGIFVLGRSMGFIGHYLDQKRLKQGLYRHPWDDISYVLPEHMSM
As to conditions: cited from earlier work.

The conditions of data set [1]: free acid converts to lactone; cited from earlier work.
The conditions of data set [2]: rats, cited from earlier work.
For data set [3] the following is noted: in vivo; cited from earlier work.
Data set [4] relates to gluconeogenesis in rat liver. As to conditions: HCA-treated rats; cited from earlier work.
Data set [5] is described as follows: stability of the product in solid state and in aqueous solution. The data set is classed as physicochemical. Here is the method:
The stability of the product was evaluated in solid state and in aqueous solution in temperature and humidity conditions as specified below. The following parameters of the product were considered: physical appearance, specific rotation, HCA content by HPLC, lactone content by HPLC. […]
b) 37°±2° C. and 75%±2 relative humidity c) 45°±2° C. and 75%±2 relative humidity
2. In solution form (5% in water)

Data set [6] can be described thus: solubility (product specification). The data set is classed as physicochemical.

“Also recorded” adds a separate entry of the source. A value given as a limit tells only on which side of the number the result lay.

Regarding `O=C1C[C@@](O)(C(=O)O)[C@@H](C(=O)O)O1` [HCA in lactone form, hydroxy citric acid lactone], on citrate lyase (lactone form), the “inhibiting the citrate lyase” value was “inactive, or less active”. Besides, the “stability of the form” value in data set [1] was “stable”.

Broadly, the Ki is the equilibrium dissociation constant of an inhibitor or competing ligand from its target. For the molecule `O=C(O)CC(O)(C(=O)O)C(O)C(=O)O` (centres unmarked) [HCA, hydroxycitric acid], in data set [2] (80 day study period), the “less weight gained than the controls” value was 78% and the “net reduction in food consumption” value was 4%. Moreover, the food consumption suppressed in data set [2] (HCA 1% or more of the diet) is listed as no less than 10%. In addition, the inhibition constant (Ki) on citrate lyase (competitive inhibition, read-out: Ki, competitive inhibitor of citrate lyase) was 150 nM. The “affinity of the enzyme for HCA versus affinity for citric acid” value on citrate lyase (relative to citric acid) is listed as “over a hundred times greater”. Also, the brain uptake result in data set [3] is given as “negligible”. Also, the “stability of the form” value in data set [1] was “not stable”. Further, the “rate of gluconeogenesis from lactate or alanine” value in data set [4] was “approximately doubled”.

As for potassium hydroxy citrate [CITRIN®-K], in data set [5] (extrapolated from 90 day stress results), the “stable under normal storage conditions” value was “about 5 years”. Besides, the “stable under stress conditions” value in data set [5] (higher temperature and higher humidity, solid state and 5% in water) is given as no less than 90 days. In addition, the Solubility result in data set [6] (citrate) is “Soluble in water, acids and aqueous; also recorded: alcohols. Insoluble in solvents like”; in data set [6] (listed as potassium hydroxy citrate), “water soluble”.
